Entries after “also recorded” stand apart in the source; their conditions may differ. Like-named read-outs stand apart in the source and are kept apart here.
How the values were obtained:
[1] = format: physicochemical
Procedure: Amorphous samples were exposed to ambient, 53%, and 97% relative humidities at ambient temperature (about 10° C. to about 30° C.). The samples were also exposed to 75% relative humidity at 40° C. The samples were stressed for up to 60 days. Samples were taken periodically throughout the study and analyzed by x-ray powder diffraction (XRPD) for presence of crystallinity.
Relative humidity stress studies were performed to assess the stability of amorphous alvimopan and solid dispersions. Studies were performed at ambient, 53%, and 97% relative humidity at ambient temperature. Ambient relative humidity and temperature was measured as approximately 24% and 22° C. Samples were also stressed at 75% relative humidity at 40° C. Samples were analyzed by XRPD for the presence of crystallinity.

[2] = Intrinsic dissolution experiments (Woods apparatus); format: physicochemical; conditions: approximately 37° C., 75 rpm, 900 mL medium, value (SD)
Procedure: Intrinsic dissolution experiments were conducted in a VanKel VK7010 dissolution apparatus equipped with a VK750A heater/circulator. An intrinsic dissolution apparatus (Woods apparatus) and hydraulic press were used to press samples of approximately 200 mg at approximately 1000 psi for 1 minute, giving a sample surface of 0.50 cm^2. Experiments were conducted in media of pH=1.2 HCl solution and pH =4.5 phosphate solution. 900 mL of medium was used for each experiment and the medium was maintained at approximately 37° C. The apparatus was rotated at 75 rpm. The Cary 50 UV/Vis spectrophotometer was utilized to sample automatically throughout the duration of the experiments.
Samples were analyzed with a Cary 50 UV-VIS double-beam spectrophotometer, and were analyzed in 1.000-cm quartz cuvettes at a wavelength of 271 nm. The detector was zeroed with a cuvette filled with dissolution medium prior to sample analysis. Wavelength calibration was performed using holmium oxide. The photometric accuracy was verified by measuring the intensity of the light at the detector when filters of known optical density were placed in the path of the beam.

[3] = Conversion of amorphous form to crystalline dihydrate form (background statement); format: physicochemical
Source text: [[2(S)-[[4(R)-(3-hydroxyphenyl)-3(R),4-dimethyl-piperidinyl]methyl]-1-oxo-3-phenylpropyl]amino]acetic acid may exist in different crystalline forms, including hydrate forms, solvate forms and anhydrous form, and as an amorphous material. Above a relative humidity of about 15%, it exists in its crystalline dihydrate form. Below a relative humidity of about 15%, it exists in its anhydrous form. Amorphous [[2(S)-[[4(R)-(3-hydroxyphenyl)-3(R),4-dimethyl-piperidinyl]methyl]-1-oxo-3-phenylpropyl]amino]acetic acid is hygroscopic and converts to its crystalline dihydrate form when it is stressed, for example, at 54% relative humidity for 12 days or 75% relative humidity in the temperature range of about 40° C. to about 80° C. for three days. Under ambient conditions, amorphous [[2(S)-[[4(R)-(3-hydroxyphenyl)-3(R),4-dimethyl-piperidinyl]methyl]-1-oxo-3-phenylpropyl]amino]acetic acid completely converts to its crystalline dihydrate form after 66 days.

[4] = Solubility in water (statement); format: physicochemical; conditions: statement in words, dihydrate
[5] = Bioavailability (statement); format: in vivo; conditions: statement in words, dihydrate
[6] = Moisture sorption analysis; format: physicochemical; conditions: for XRPD after Moisture Sorption: solid remaining after moisture sorption analysis; for Moisture Sorption: weight lost upon desorption: between 95% and 5% RH
[7] = 53% Relative Humidity and Ambient Temperature, 7 days stressed
[8] = 53% Relative Humidity and Ambient Temperature, 17 days stressed
[9] = 53% Relative Humidity and Ambient Temperature, 30 days stressed
[10] = 53% Relative Humidity and Ambient Temperature, 60 days stressed
[11] = 97% Relative Humidity and Ambient Temperature, 7 days stressed
[12] = ambient conditions (approximately 24% relative humidity and 22° C.), 7 days stressed
[13] = ambient conditions (approximately 24% relative humidity and 22° C.), 17 days stressed
[14] = ambient conditions (approximately 24% relative humidity and 22° C.), 30 days stressed
[15] = listed as Amorphous [[2(S)-[[4(R)-(3-hydroxyphenyl)-3(R),4-dimethyl-piperidinyl]methyl]-1-, sodium salt
[16] = 75% Relative Humidity and 40° C., 7 days stressed
[17] = ambient conditions (approximately 24% relative humidity and 22° C.), 60 days stressed
[18] = listed as Amorphous Alvimopan Prepared by Rotary Evaporation
[19] = listed as rotary evaporated sample
[20] = ambient conditions (approximately 24% relative humidity and 22° C.), 43 days stressed
[21] = listed as Amorphous [[2(S)-[[4(R)-(3-hydroxyphenyl)-3(R),4-dimethyl-piperidinyl]methyl]-1-

## C[C@H]1CN(C[C@H](Cc2ccccc2)C(=O)NCC(=O)O)CC[C@@]1(C)c1cccc(O)c1 [amorphous preparation, [[2(S)-[[4(R)-(3-hydroxyphenyl)-3(R),4-dimethyl-piperidinyl]methyl]-1-oxo-3-phenylpropyl]amino]acetic acid]
[1]
  Stability conclusion of the stress studies: stable under stress conditions except at 97% relative humidity
[2]
  Intrinsic Dissolution Rate, mg/min/cm^2 (SD), pH 1.2 HCl: 0.217 (0.017) mg/min/cm^2
[3]; 54% relative humidity
  time stressed after which amorphous form converts to its crystalline dihydrate form: 12 days
[3]; 75% relative humidity, about 40° C. to about 80° C.
  time stressed after which amorphous form converts to its crystalline dihydrate form: three days
[3]; ambient conditions
  time after which amorphous form completely converts to its crystalline dihydrate form: 66 days

## C[C@H]1CN(C[C@H](Cc2ccccc2)C(=O)NCC(=O)O)CC[C@@]1(C)c1cccc(O)c1 [crystalline alvimopan, [[2(S)-[[4(R)-(3-hydroxyphenyl)-3(R),4-dimethyl-1-piperidinyl]methyl]-1-oxo-3-phenylpropyl]amino]acetic acid dihydrate]
[2]
  Intrinsic Dissolution Rate, mg/min/cm^2 (SD), pH 1.2 HCl: 0.148 (0.025) mg/min/cm^2
[4]; listed as Alvimopan
  solubility in water: extremely low solubility in water
[4]; listed as alvimopan
  solubility in water: lower solubility in water than amorphous
[4]; listed as compound of formula (II)
  solubility in water: low solubility in water except at low or high pH conditions
[5]; listed as Alvimopan
  bioavailability: poor oral bioavailability
[5]; listed as alvimopan
  bioavailability: lower bioavailability than the amorphous form

## C[C@H]1CN(C[C@H](Cc2ccccc2)C(=O)NCC(=O)[O-])CC[C@@]1(C)c1cccc(O)c1.[Na+] [[[2(S)-[[4(R)-(3-hydroxyphenyl)-3(R),4-dimethyl-piperidinyl]methyl]-1-oxo-3-phenylpropyl]amino]acetic acid sodium salt]
[1]; [7]
  XRPD Result: amorphous + peak
[1]; [8]
  XRPD Result: amorphous + peak
[1]; [9]
  XRPD Result: amorphous + peak
[1]; [10]
  XRPD Result: amorphous + peak
[1]; 75% RH and 40° C.
  Outcome of stress: deliquesced after three days of exposure
[1]; [11]
  Observation: white solids; slight
  XRPD Result: Form A
[1]; 97% relative humidity and ambient temperature
  Outcome of stress: likely crystallized to Form A
[1]; [12]
  XRPD Result: amorphous + peak
[1]; [13]
  Observation: off-white, yellow
  XRPD Result: amorphous + peak
[1]; [14]
  Observation: off-white, yellow
  XRPD Result: amorphous + peak
[6]
  Moisture Sorption: lost upon equilibration at 5% RH: 2.8% lost upon equilibration at 5% RH
[6]; [15]
  XRPD after Moisture Sorption: peak + amorphous

## C[C@H]1CN(C[C@H](Cc2ccccc2)C(=O)NCC(=O)O)CC[C@@]1(C)c1cccc(O)c1 [ethanol roto evap at 30° C.; 100° C. vac oven] [[[2(S)-[[4(R)-(3-hydroxyphenyl)-3(R),4-dimethyl-piperidinyl]methyl]-1-oxo-3-phenylpropyl]amino]acetic acid]
[1]
  Stability conclusion of the stress studies: showed crystallization under this same stress condition
[1]; [7]
  XRPD Result: amorphous
[1]; [8]
  XRPD Result: amorphous
[1]; [9]
  XRPD Result: amorphous
[1]; [10]
  Observation: white solids,
  XRPD Result: amorphous
[1]; 75% RH and 40° C., listed as Amorphous [[2(S)-[[4(R)-(3-hydroxyphenyl)-3(R),4-dimethyl-piperidinyl]methyl]-1-
  Outcome of stress: crystallized to alvimopan Form A
[1]; [16]
  Observation: white solids;
  XRPD Result: PC; Form A
[1]; [11]
  Observation: white solids; some
  XRPD Result: Form A
[1]; [12]
  XRPD Result: amorphous
[1]; [13]
  XRPD Result: amorphous
[1]; [14]
  Observation: white solids, flakes;
  XRPD Result: amorphous
[1]; [17]
  XRPD Result: amorphous
[6]; [18]
  Moisture Sorption: weight gain between 5% and 95% RH: 13.8% weight gain between 5% and 95% RH
  Moisture Sorption: weight lost upon desorption: 12.2% weight lost upon desorption
  Moisture Sorption: lost upon equilibration at 5% RH: 0.6% lost upon equilibration at 5% RH
  XRPD after Moisture Sorption: low crystalline; amorphous, Form A, or Form B
[6]; [19]
  Moisture Sorption: weight gain between 5% and 95% RH: ~13%
  XRPD after Moisture Sorption: crystallized to low crystalline material

## C[C@H]1CN(C[C@H](Cc2ccccc2)C(=O)NCC(=O)[O-])CC[C@@]1(C)c1cccc(O)c1.[Na+] [2:1 sodium carbonate attempt; lyophilized; 100° C. vac oven] [[[2(S)-[[4(R)-(3-hydroxyphenyl)-3(R),4-dimethyl-piperidinyl]methyl]-1-oxo-3-phenylpropyl]amino]acetic acid sodium salt]
[1]; 53% Relative Humidity and Ambient Temperature, 13 days stressed
  XRPD Result: amorphous
[1]; 53% Relative Humidity and Ambient Temperature, 43 days stressed
  XRPD Result: amorphous
[1]; 75% Relative Humidity and 40° C., 3 days stressed, sodium salt
  Observation: deliquescence;
[1]; 97% relative humidity and ambient temperature, listed as 2:1 amorphous [[2(S)-[[4(R)-(3-hydroxyphenyl)-3(R),4-dimethyl-piperidinyl]methyl, sodium salt
  Outcome of stress: deliquesced within three days of exposure
[1]; ambient conditions (approximately 24% relative humidity and 22° C.), 7 days stressed, sodium salt
  Observation: off-white, yellow
[1]; ambient conditions (approximately 24% relative humidity and 22° C.), 13 days stressed
  XRPD Result: amorphous + peak
[1]; ambient conditions (approximately 24% relative humidity and 22° C.), 30 days stressed, sodium salt
  XRPD Result: amorphous + peak;
[1]; [20]
  Observation: white and yellow
  XRPD Result: amorphous + peak
[6]; [15]
  Moisture Sorption: lost upon equilibration at 5% RH: 0.1% lost upon equilibration at 5% RH
  XRPD after Moisture Sorption: deliquescence of the material; also recorded: sample deliquesced

## C[C@H]1CN(C[C@H](Cc2ccccc2)C(=O)NCC(=O)O)CC[C@@]1(C)c1cccc(O)c1 [lyophilized; 100° C. vac oven, [[2(S)-[[4(R)-(3-hydroxyphenyl)-3(R),4-dimethyl-piperidinyl]methyl]-1-oxo-3-phenylpropyl]amino]acetic acid]
[1]
  Stability conclusion of the stress studies: stable at 75% relative humidity and 40 °C
[1]; [7]
  XRPD Result: amorphous
[1]; [8]
  XRPD Result: amorphous
[1]; [9]
  XRPD Result: amorphous
[1]; [10]
  XRPD Result: amorphous
[1]; 75% RH and 40° C., listed as amorphous alvimopan sample prepared by lyophilization
  Outcome of stress: Crystallization was not observed
[1]; [16]
  XRPD Result: amorphous
[1]; 75% Relative Humidity and 40° C., 17 days stressed
  XRPD Result: amorphous
[1]; 75% Relative Humidity and 40° C., 30 days stressed
  XRPD Result: amorphous
[1]; 75% Relative Humidity and 40° C., 60 days stressed
  XRPD Result: amorphous
[1]; [11]
  Observation: off-white solids; some
  XRPD Result: Form A
[1]; [12]
  XRPD Result: amorphous
[1]; [13]
  XRPD Result: amorphous
[1]; [14]
  XRPD Result: amorphous
[1]; [17]
  XRPD Result: amorphous
[6]; [21]
  Moisture Sorption: weight gain between 5% and 95% RH: 13.0% weight gain between 5% and 95% RH
  Moisture Sorption: weight lost upon desorption: 10.8% weight lost upon desorption
  Moisture Sorption: lost upon equilibration at 5% RH: 0.2% lost upon equilibration at 5% RH
  XRPD after Moisture Sorption: amorphous
[6]; listed as lyophilized sample
  Moisture Sorption: weight gain between 5% and 95% RH: ~13%
  XRPD after Moisture Sorption: remained amorphous
